Experimental findings from patent US20070123460A1, “Probiotic compounds from Lactobacillus GG and uses therefor” (THE UNIVERSITY OF CHICAGO, priority 2005, published 2007) are described below.

In this assay the test system is Hsp72. The assay can be described thus: Hsp72 induction in YAMC cells, Western blot. The format is cell-based, mouse. The note with it: inhibitor 2 hours before LGG-CM (15 minutes); harvest 4 hours later; SB203580 20 μM, SP600125 20 μM, PD98059 50 μM. The protocol: Prior to each study, cells were plated at a density of 2×10^5 per 60 mm tissue culture dish. For RNA preparation, cells were plated at a density of 7.5×10^5 cells per p100 mm dish. After 24 hours of growth at 33° C., the medium was replaced with IFN-free media and cells were moved to 37° C. (non-permissive conditions) for 24 hours to allow development of the differentiated colonocyte phenotype. […] Heat shock controls were heat-shocked at 42° C. for 23 minutes and then left at 37° C. for 2 hours before harvest.
Intestinal epithelial cells were treated with conditioned media from the probiotic LGG and then assayed for inducible heat shock protein expression. For Western blot analyses of expression, cells were washed twice and then scraped in ice-cold PBS (137 mM NaCl, 2.7 mM KCl, 8 mM Na2HPO4, pH 7.4). Cells were pelleted (14,000×g for 20 seconds at room temperature), then resuspended in ice-cold lysis buffer (10 mM Tris, pH 7.4, 5 mM MgCl2, 50 U/ml each of DNAse and RNAse, plus complete protease inhibitor cocktail (Roche Molecular Biochemicals, Indianapolis, Ind.)). Protein concentrations were determined using the bicinchoninic acid procedure (Smith et al., 1985). Samples were heated to 75° C. for 5 minutes after addition of 3× Laemmli Stop buffer, then stored at −80° C. until use.
Twenty micrograms of protein per lane were resolved on 12.5% SDS-PAGE. […]
In general terms: A western blot detects proteins with antibodies after separation by electrophoresis.

On to `COc1cccc(-c2cc(=O)c3ccccc3o2)c1N` [PD98059], for which the “inhibition of LGG-CM-induced Hsp72 expression” value was “more modest effect”.
